# Experimental data as given in the NIST ThermoML archive (doi:10.1021/je100407f).
# Several values for one entry are separate records, joined by “and”; a condition that tells them apart may be missing. Identical values can stand only once. Numbers after ± are expanded uncertainties.
# Details: 101 kPa, Liquid mixture 1, Ring tensiometer
Structure (SMILES),interfacial tension (283.15 K) [mN/m],interfacial tension (293.15 K) [mN/m],interfacial tension (303.15 K) [mN/m],interfacial tension (313.15 K),interfacial tension (323.15 K) [mN/m],interfacial tension (333.15 K) [mN/m]
CCCCn1cc[n+](C)c1.F[P-](F)(F)(F)(F)F [1-butyl-3-methylimidazolium hexafluorophosphate] + CCCCCCC,14.81 ± 0.32,14.69 ± 0.32,14.67 ± 0.32,14.59 ± 0.32 mN/m,14.5 ± 0.32,14.41 ± 0.32
CCCCCCn1cc[n+](C)c1.F[P-](F)(F)(F)(F)F [1-hexyl-3-methylimidazolium hexafluorophosphate] + CCCCCC,9.01 ± 0.26,8.9 ± 0.26,8.83 ± 0.26,8.84 ± 0.26 mN/m,8.73 ± 0.26,8.68 ± 0.26
CCCCCCn1cc[n+](C)c1.F[P-](F)(F)(F)(F)F [1-hexyl-3-methylimidazolium hexafluorophosphate] + CCCCCCC,8.86 ± 0.26,8.74 ± 0.26,8.73 ± 0.26,8.69 ± 0.26 mN/m,8.54 ± 0.26,8.47 ± 0.26
CCCCCn1cc[n+](C)c1.F[P-](F)(F)(F)(F)F [1-methyl-3-pentylimidazolium hexafluorophosphate] + CCCCCC,12.37 ± 0.3,11.92 ± 0.29,,12 ± 0.29 mN/m and 11.93 ± 0.29 mN/m,11.78 ± 0.29,11.67 ± 0.29
CCCCCn1cc[n+](C)c1.F[P-](F)(F)(F)(F)F [1-methyl-3-pentylimidazolium hexafluorophosphate] + CCCCCCC,12.23 ± 0.3,12.12 ± 0.29,12.02 ± 0.29,11.9 ± 0.29 mN/m,11.63 ± 0.29,11.53 ± 0.29
CCCCCCCC[n+]1ccn(C)c1.F[P-](F)(F)(F)(F)F [1-octyl-3-methylimidazolium hexafluorophosphate] + CCCCCC,4.89 ± 0.23,4.77 ± 0.23,4.66 ± 0.23,4.52 ± 0.22 mN/m,4.45 ± 0.22,4.46 ± 0.22
